Assay results as given in patent US20090012067A1, “Modulation of Hypothalamic Atp-Sensitive Potassium Channels” (priority 2005, published 2009).
Blank lines part the entries; values can stand above or below the molecule they belong to.

Tests used:
PEPCK = test: liver PEPCK mRNA by real-time PCR after the infusions; assay type: in vivo, Sprague-Dawley rats
Description: (§1) Gene expression. Gluconeogenic enzymes. Quantitative analysis of gene expression was done using RT-PCR. Total RNA was isolated with Trizol (Invitrogen) and single-strand cDNA was synthesized with a kit provided by Invitrogen. Real-time PCR reactions and the primers for G6Pase and PEPCK were done as described (Pocai et al., in press). The copy number of each transcript was derived from a standard curve of cloned target templates. Expression of each transcript was normalized to copy number for 18s ribosomal protein.

G6Pase = test: liver G6Pase mRNA by real-time PCR after the infusions; assay type: in vivo, Sprague-Dawley rats
Description: as §1

[1] = system: hypothalamic KATP channels; test: central infusion in rats on a high fat diet for three days (hepatic insulin resistance), glucose production; assay type: in vivo; conditions: plasma insulin 20 μU/ml
Description: Additional experiments were also performed in rats maintained on a high fat diet regimen for three days.

central KATP channels = test: ICV infusion of diazoxide with pancreatic-insulin clamp (1 mU/kg·min) in conscious rats; assay type: in vivo, Sprague-Dawley rats
Description: (§2) Animal preparation for the in vivo experiments. Rats. Eighty-nine 10-week-old male Sprague-Dawley rats (Charles River Breeding Laboratories, Wilmington, Mass.) were studied. Rats were housed in individual cages and subjected to a standard light-dark cycle. Three weeks prior to the in vivo studies, chronic catheters were implanted in the third cerebral ventricle (Obici et al., 2003; Liu et al., 1998) or intrahypothalamically (Morton et al., 2003) (IH) by stereotaxic surgery. One week before the pancreatic-insulin clamp protocols, rats received additional catheters in the right internal jugular and left carotid artery (FIG. 5) (Obici et al., 2003; Liu et al., 1998). In vivo studies. For the studies in rats, the metabolic experiments were performed ˜3 weeks after stereotaxic surgery following complete recovery from the operation (FIG. 5). All solutions were diluted with artificial cerebral spinal fluid (aCSF). […] Pancreatic-insulin clamp studies were performed as previously described (Liu et al., 1998). Euglycemic-hyperinsulinemic clamps in conscious, unrestrained, catheterized mice were performed for 90 min as previously described (Obici et al., 2003; Liu et al., 1998). Hepatic glucose fluxes. Rate of hepatic glucose fluxes was determined as described. Barzilai et al., 1997).

[2] = system: KATP channels within the medial hypothalamus; test: Intrahypothalamic (IH) infusion of diazoxide or insulin with pancreatic-insulin clamp; assay type: in vivo, Sprague-Dawley rats; conditions: for rate of glucose infusion required to prevent hypoglycemia: IH infusion during a pancreatic clamp, vs vehicle; for blood glucose levels / GP (glucose production): IH infusion; for blood glucose levels: bilateral, medial hypothalamus, total dose insulin 2 μU; for GP (glucose production): basal circulating insulin
Description: as §2, with “1998).” for “1998). Hepatic glucose fluxes. Rate of hepatic glucose fluxes was determined as described. Barzilai et al., 1997).”

[3] = system: hypothalamic KATP channels; test: ICV infusion of insulin, KATP channel blocker (glibenclamide) or both with pancreatic-insulin clamp (1 mU/kg·min); assay type: in vivo, Sprague-Dawley rats; conditions: for Direct: ICV infusion, direct pathway; for glucose infusion needed to prevent hypoglycemia: near basal circulating insulin levels
Description: Animal preparation for the in vivo experiments. Rats. Eighty-nine 10-week-old male Sprague-Dawley rats (Charles River Breeding Laboratories, Wilmington, Mass.) were studied. Rats were housed in individual cages and subjected to a standard light-dark cycle. Three weeks prior to the in vivo studies, chronic catheters were implanted in the third cerebral ventricle (Obici et al., 2003; Liu et al., 1998) or intrahypothalamically (Morton et al., 2003) (IH) by stereotaxic surgery. […] In vivo studies. For the studies in rats, the metabolic experiments were performed ˜3 weeks after stereotaxic surgery following complete recovery from the operation (FIG. 5). All solutions were diluted with artificial cerebral spinal fluid (aCSF). […] Euglycemic-hyperinsulinemic clamps in conscious, unrestrained, catheterized mice were performed for 90 min as previously described (Obici et al., 2003; Liu et al., 1998). Hepatic glucose fluxes. Rate of hepatic glucose fluxes was determined as described. Barzilai et al., 1997).

[4] = biological target: T1, hypothalamic insulin receptors (Rattus norvegicus, UniProt P15127); test: ICV insulin in rats with hepatic branch vagotomy (HV), sham operation or vagal deafferentation, pancreatic-insulin clamp (1 mU/kg·min); assay type: in vivo, Sprague-Dawley rats
T1 construct: Paired groups of SHAM and HV rats received an ICV infusion of either insulin or vehicle; from tissue; host or cells: CNS / hypothalamus of living Sprague-Dawley rats (ICV infusion)
T1 sequence (P15127 27-759 limits assumed): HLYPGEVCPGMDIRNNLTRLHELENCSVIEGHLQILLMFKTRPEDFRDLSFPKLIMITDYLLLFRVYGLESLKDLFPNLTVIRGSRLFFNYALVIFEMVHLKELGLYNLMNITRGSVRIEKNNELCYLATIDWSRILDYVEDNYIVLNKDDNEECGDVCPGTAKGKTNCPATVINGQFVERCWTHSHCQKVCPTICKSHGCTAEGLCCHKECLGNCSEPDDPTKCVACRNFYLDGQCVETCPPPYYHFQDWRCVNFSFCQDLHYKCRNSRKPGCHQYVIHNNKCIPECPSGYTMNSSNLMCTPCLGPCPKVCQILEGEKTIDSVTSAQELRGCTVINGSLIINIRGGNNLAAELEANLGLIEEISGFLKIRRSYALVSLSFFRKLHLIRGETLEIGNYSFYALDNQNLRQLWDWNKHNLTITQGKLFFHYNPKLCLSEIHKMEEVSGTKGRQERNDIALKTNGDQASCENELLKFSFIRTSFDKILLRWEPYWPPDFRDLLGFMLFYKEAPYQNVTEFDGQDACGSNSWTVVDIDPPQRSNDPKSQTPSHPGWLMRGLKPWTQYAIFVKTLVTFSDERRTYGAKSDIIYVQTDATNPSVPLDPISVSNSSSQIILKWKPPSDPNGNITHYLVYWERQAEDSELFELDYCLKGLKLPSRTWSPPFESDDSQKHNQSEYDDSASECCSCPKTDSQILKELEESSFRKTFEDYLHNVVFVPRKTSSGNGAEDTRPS
T1 sequence (P15127 764-1383 partner limits assumed): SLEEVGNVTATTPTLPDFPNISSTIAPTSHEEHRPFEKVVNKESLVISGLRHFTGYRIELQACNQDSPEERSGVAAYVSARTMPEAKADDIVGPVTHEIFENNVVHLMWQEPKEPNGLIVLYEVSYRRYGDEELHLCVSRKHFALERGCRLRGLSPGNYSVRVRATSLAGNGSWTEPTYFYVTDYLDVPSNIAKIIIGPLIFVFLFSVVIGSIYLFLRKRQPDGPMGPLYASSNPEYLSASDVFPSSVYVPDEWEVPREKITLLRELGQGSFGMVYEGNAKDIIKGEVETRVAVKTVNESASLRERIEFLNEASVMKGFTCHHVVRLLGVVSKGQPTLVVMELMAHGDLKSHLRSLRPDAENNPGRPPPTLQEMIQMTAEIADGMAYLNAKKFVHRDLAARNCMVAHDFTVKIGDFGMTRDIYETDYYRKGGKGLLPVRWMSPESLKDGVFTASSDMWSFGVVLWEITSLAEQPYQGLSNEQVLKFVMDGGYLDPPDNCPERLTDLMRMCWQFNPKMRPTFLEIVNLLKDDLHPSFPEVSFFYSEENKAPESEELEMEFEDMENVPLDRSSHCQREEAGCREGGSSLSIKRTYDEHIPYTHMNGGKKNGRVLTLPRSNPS
Description: Animal preparation for the in vivo experiments. Rats. Eighty-nine 10-week-old male Sprague-Dawley rats (Charles River Breeding Laboratories, Wilmington, Mass.) were studied. Rats were housed in individual cages and subjected to a standard light-dark cycle. Three weeks prior to the in vivo studies, chronic catheters were implanted in the third cerebral ventricle (Obici et al., 2003; Liu et al., 1998) or intrahypothalamically (Morton et al., 2003) (IH) by stereotaxic surgery.
(§3) In vivo studies. For the studies in rats, the metabolic experiments were performed ˜3 weeks after stereotaxic surgery following complete recovery from the operation (FIG. 5). All solutions were diluted with artificial cerebral spinal fluid (aCSF). […] Euglycemic-hyperinsulinemic clamps in conscious, unrestrained, catheterized mice were performed for 90 min as previously described (Obici et al., 2003; Liu et al., 1998).
(§4) Selective hepatic branch vagotomy. One week before the clamp procedure a subgroup of rats underwent selective hepatic vagotomy (HV) or sham operation (SHAM). Anatomical nerve transactions was verified in each rat at sacrifice by microscopic observation of the absence of vagal nerve fibers in between the two silk sutures that had been placed along the trunk at the time of transection (la Fleur et al., 2003).
Selective vagal deafferentation. Nerve transection was performed as previously described, according to the methods of Norgren and Smith (Norgren & Smith, 1998).
(§5) Hepatic glucose fluxes. Rate of hepatic glucose fluxes was determined as described. Barzilai et al., 1997).

[5] = system: hepatic glucose production; test: pancreatic-hyperinsulinemic clamp (insulin 3 mU/kg·min) in SHAM and HV rats; assay type: in vivo, Sprague-Dawley rats; conditions: for suppression of GP (glucose production): hyperinsulinemia ~3-fold over basal; for Direct / % Indirect: systemic insulin (3 mU); for Direct: direct pathway; for % Indirect: indirect pathway
Description: Panel A is a schematic representation of the pancreatic-hyperinsulinemic clamp procedure. At t=120 an infusion of labeled glucose was initiated and maintained for the remaining 4 hours of the study and a pancreatic hyperinsulinemic clamp was initiated at t=240 min and lasted for 2 hours. […] The figure is a longitudinal view of a rat brain, with olfactory bulb at the anterior end on the left and the caudal hindbrain on the right.
as §3, §4, §5

[6] = ICV insulin with or without KATP channel blocker
[7] = selective vagal deafferentation, ability of central insulin not altered

Molecule: CC1=NS(=O)(=O)c2cc(Cl)ccc2N1 [diazoxide, reference compound]
liver PEPCK mRNA levels (PEPCK; ICV diazoxide study): markedly decreased | liver G6Pase mRNA levels (G6Pase; ICV diazoxide study): markedly decreased | inhibition of glucose production ([1]; ICV or intrahypothalamic infusion): ~45% | glucose cycling (central KATP channels; ICV): significantly reduced | in vivo flux through G6Pase (central KATP channels; ICV): decreased the flux through G6Pase | Direct (central KATP channels; ICV infusion, direct pathway): 14.37 ± 2.2% | decrease in GP (glucose production) (central KATP channels; ICV, 1.5 nmol, basal insulin levels (~20 μU/ml)): 45±4% | glucose infusion needed to prevent hypoglycemia (central KATP channels; ICV, basal circulating insulin levels): glucose infusion was required to prevent hypoglycemia | rate of glucose infusion required to prevent hypoglycemia [2]: significant increases | blood glucose levels [2]: lowered blood glucose levels | GP (glucose production) [2]: marked suppression of GP

Molecule: COc1ccc(Cl)cc1C(=O)NCCc1ccc(S(=O)(=O)NC(=O)NC2CCCCC2)cc1 [glibenclamide, 5-Chloro-N-[2-[4-(3-cyclohexylureidosulfonyl)phenyl]-ethyl]-2-methoxybenzamide, reference compound]
Direct [3]: 18.5 ± 2.8% | GP (glucose production) ([3]; ICV, blocker alone or co-infused with insulin): did not per se affect GP | glucose infusion needed to prevent hypoglycemia ([3]; ICV): did not modify the rate of glucose infusion

^14C-PEP ([4]; HV, ICV): 5.5 ± 1.4 dpm/nmol | glucose infusion needed to prevent hypoglycemia ([4]; HV, ICV insulin): not in the HV rats | hepatic glucose fluxes ([4]; HV, ICV insulin): failed to affect hepatic glucose fluxes | ^3H-Glucose Plasma SA ([4]; SHAM, ICV): 43.1 ± 1.9 dpm/nmol | ^3H-UDPglucose Liver SA ([4]; SHAM, ICV): 5.5 ± 0.5 dpm/nmol | gluconeogenesis ([4]; SHAM, ICV insulin): marked inhibition of gluconeogenesis | in vivo flux through G6Pase ([4]; SHAM, ICV insulin): markedly decreased | Direct ([4]; SHAM, ICV, direct pathway): 12.1 ± 0.7% | rate of glucose uptake ([4]; either SHAM or HV rats, ICV): not significantly affected | GP (glucose production) [4, 7]: suppress GP | blood glucose levels [4, 7]: lower blood glucose levels
Molecule: insulin
liver PEPCK mRNA levels (PEPCK; HV, ICV insulin): not in HV rats | liver PEPCK mRNA levels (PEPCK; [6]): marked KATP channels dependent decreases | liver PEPCK mRNA levels (PEPCK; SHAM, ICV insulin): marked decrease | liver G6Pase mRNA levels (G6Pase; [6]): marked KATP channels dependent decreases | liver G6Pase mRNA levels (G6Pase; SHAM, ICV insulin): marked decrease | glucose infusion needed to prevent hypoglycemia ([4]; SHAM, ICV insulin): glucose infusion was required to prevent hypoglycemia | glucose production ([1]; central administration): failed to significantly inhibit glucose production | rate of glucose infusion required to prevent hypoglycemia [2]: significant increases | blood glucose levels [2]: reproduced the potent effects of ICV insulin or diazoxide | GP (glucose production) [2]: reproduced the potent effects of ICV insulin or diazoxide | in vivo flux through G6Pase ([3]; ICV): markedly decreased | Direct [3]: 12.1 ± 0.7% | decrease in GP (glucose production) ([3]; ICV insulin 30 μU, basal and equal insulin levels (~20 μU/ml)): 52±8% | glucose infusion needed to prevent hypoglycemia ([3]; ICV): glucose infusion was required to prevent hypoglycemia | rate of glucose disposal (uptake) ([3]; ICV, pancreatic-insulin clamp): not significantly affected | Glucose ([5]; HV, Clamp, systemic insulin 3 mU/Kg·min): 8.1 ± 0.5 mM | suppression of GP (glucose production) ([5]; HV): 38±11% | Direct ([5]; HV): 22.0 ± 2.3% | % Indirect ([5]; HV): 60.7 ± 9.4 % | suppression of GP (glucose production) ([5]; SHAM): 80±8% | Direct ([5]; SHAM): 22.8 ± 3.9% | % Indirect ([5]; SHAM): 34.5 ± 6.7%
